# Data taken from publication PMC6332330, “Four New Cyclohexylideneacetonitrile Derivatives from the Hypocotyl of Mangrove (Bruguiera gymnorrhiza)” (Molecules, 2015).
# Legend:
# [1] = Toxicity in standardized culture assay; conditions: human
# HBV replication = assay: Anti-HBV antiviral assay in standardized culture assay; conditions: for EC50: Hepatitis B virus, read-out: EC50 (anti-HBV activity); for activity against HBV replication (in words): human hepatoblastoma cell line, activity order 5 > 6 > 4 > 3 > 1 > 2 > 7; for SI (CC50/EC50): selectivity index, ratio of CC50 to EC50
# [2] = HBV-producing human hepatoblastoma cell line
SMILES,"CC50 [1, 2]",EC50 (HBV replication),activity against HBV replication (in words) (HBV replication),SI (CC50/EC50) (HBV replication),CC50 [1]
"O=C1C=C2C=C[C@@H](O)C[C@H]2O1 [Compound 7, menisdaurilide]",215 ± 14.7 µg/mL,80.7 ± 5.8 µg/mL,lesser degree of specific activity,2.7,–
"CO[C@H]1C=C/C(=C/C#N)[C@@H](O[C@@H]2O[C@H](CO)[C@@H](O)[C@H](O)[C@H]2O)C1 [Compound 1, Menisdaurin B]",–,23.8 ± 0.5 µg/mL,–,7.5,178 ± 13.3 µg/mL
"Nc1ccn([C@@H]2CS[C@H](CO)O2)c(=O)n1 [Lamivudine, reference compound]",–,0.1 ± 0.03 µg/mL,–,–,–
"N#C/C=C1/CC[C@H](O)C[C@@H]1O [Compound 4, Menisdaurin E]",72.3 ± 4.1 µg/mL,8.7 ± 1.1 µg/mL,–,8.3,–
"CO[C@H]1CC/C(=C/C#N)[C@@H](O[C@@H]2O[C@H](CO)[C@@H](O)[C@H](O)[C@H]2O)C1 [Compound 2, Menisdaurin C]",–,30.7 ± 1 µg/mL,–,5.4,165 ± 10.4 µg/mL
"N#C/C=C1/C=C[C@H](O)C[C@@H]1O[C@@H]1O[C@H](CO)[C@@H](O)[C@H](O)[C@H]1O [Compound 5, menisdaurin]",–,5.1 ± 0.2 µg/mL,most effective activity,11.3,57.8 ± 3.9 µg/mL
"N#C/C=C1\C=C[C@H](O)C[C@@H]1O [Compound 6, coclauril]",–,7.6 ± 0.5 µg/mL,–,11.0,83.9 ± 2.3 µg/mL
"N#C/C=C1/CC[C@H](O)C[C@@H]1O[C@@H]1O[C@H](CO)[C@@H](O)[C@H](O)[C@H]1O [Compound 3, Menisdaurin D]",–,19.4 ± 0.3 µg/mL,–,9.4,182 ± 6.8 µg/mL
